Experimental data taken from patent publication US8871179B2, “Method for monitoring blood flow and metabolic uptake in tissue with radiolabeled alkanoic acid” (The General Hospital Corporation, priority 2003, dated 2014).
Each block holds one compound with its values, some of them ahead of it.

Key:
[1] = in vivo; cited from earlier work
[2] = Biodistribution of isomers and racemic mixture of labeled 3-methylheptadecanoic acid in rats; type: in vivo; conditions: rat
Description: The following data compare the biodistribution of 1-[^11C]-3(S)-methylheptadecanoic acid (the ‘S’ isomer) and I-[^11C]-3(R)-methylheptadecanoic acid (the ‘R’ isomer). Also compared is the racemic mixture, 1-[^14C]-3(R,S)-methylheptadecanoic acid, labeled with ^14C. […] Biodistribution was performed in six rats for each compound and time point. The 5-minute distribution data are contained in Table 5, while the 30-minute data are contained in Table 6. These unexpected results imply that during β-oxidation, enoyl-CoA hydratase is stereo-specific and only recognizes the ‘S’ isomer. Further, stereoisomeric purity is important for targeting the MFA to heart tissue.

[3] = cited from earlier work
[4] = Biodistribution of [^18F]-FCPHA in rats (organs excised, gamma counter); type: in vivo, Sprague-Dawley rats
[5] = Heart imaging in pig after intravenous [^18F]FCPHA; type: in vivo
Description: (§1) In FIG. 6, the images are a comparison of [^13N]ammonia (right) and [^18F]FCPHA (left) at 2-8 minutes in a pig.
(§2) The biodistribution of [^18F]-FCPHA was also studied in monkeys.

[6] = PET heart imaging in monkey after intravenous [^18F]-FCPHA; type: in vivo
Description: as §1, §2

[7] = Biodistribution of [^18F]-FCPHA in rats (organs excised, gamma counter); type: in vivo, Sprague-Dawley rats; conditions: rat
Description: Male Sprague-Dawley rats weighing approximately 300-350 grams, were injected without anesthesia with 40 µCi of [^18F]-FCPHA in a total volume of 200 µl. The radiolabeled FA was injected into the tail vein and the rats subsequently sacrificed at 5 minutes and 60 minutes post-injection. The organs were excised and counted in a gamma counter. Accumulation of the FA in various organs in % DPG (dose per gram) is detailed in Table 1.
Bone accumulation of the fluorinated FA measured de-fluorination of the compound and its subsequent accumulation. To confirm imaging resolution, the following ratios were determined at 5 and 60 minutes post-injection (Table 2).

[8] = normal myocardium, biexponential clearance

Structure (SMILES): CC(CCCCCCCCCCCCc1ccc(I)cc1)CC(=O)O (racemic) [BMIPP, 15-(p-iodophenyl)-3-(R,S)-methyl-pentadecanoic acid]
Myocardial retention [1]: 30 to 45 min

Structure (SMILES): CCCCCCCCCCCCCCC(C)C[14C](=O)O (racemic) [R,S racemic mixture, 1-[^14C]-3(R,S)-methylheptadecanoic acid]
Biodistribution, Blood ([2]; 5 minutes post-injection): 0.23 ± 0.02 % DPE
Biodistribution, Heart ([2]; 5 minutes post-injection): 2.20 ± 0.95 % DPE
Biodistribution, Left Ventricle ([2]; 5 minutes post-injection): 2.87 ± 1.01 % DPE
Biodistribution, Right Ventricle ([2]; 5 minutes post-injection): 2.05 ± 0.54 % DPE
Heart-to-blood ([2]; 5 minutes post-injection): 9.56
Left ventricle-to-blood ([2]; 5 minutes post-injection): 12.48
Right ventricle-to-blood ([2]; 5 minutes post-injection): 8.90
Biodistribution, Blood ([2]; 30 minutes post-injection): 0.20 ± 0.02 % DPE
Biodistribution, Heart ([2]; 30 minutes post-injection): 2.10 ± 0.41 % DPE
Biodistribution, Left Ventricle ([2]; 30 minutes post-injection): 2.81 ± 0.35 % DPE
Biodistribution, Right Ventricle ([2]; 30 minutes post-injection): 2.10 ± 0.41 % DPE
Heart-to-blood ([2]; 30 minutes post-injection): 10.10
Left ventricle-to-blood ([2]; 30 minutes post-injection): 12.48
Right ventricle-to-blood ([2]; 30 minutes post-injection): 10.05

Structure (SMILES): CCCCCCCCCCCCCC[C@H](C)C[11C](=O)O (single isomer, unassigned; isomer 1) [S-isomer]
Biodistribution, Blood ([2]; 5 minutes post-injection): 0.18 ± 0.01 % DPE
Biodistribution, Heart ([2]; 5 minutes post-injection): 3.44 ± 0.54 % DPE
Biodistribution, Left Ventricle ([2]; 5 minutes post-injection): 4.05 ± 0.77 % DPE
Biodistribution, Right Ventricle ([2]; 5 minutes post-injection): 3.40 ± 0.82 % DPE
Heart-to-blood ([2]; 5 minutes post-injection): 19.00
Left ventricle-to-blood ([2]; 5 minutes post-injection): 22.00
Right ventricle-to-blood ([2]; 5 minutes post-injection): 18.88
Biodistribution, Blood ([2]; 30 minutes post-injection): 0.21 ± 0.04 % DPE
Biodistribution, Heart ([2]; 30 minutes post-injection): 3.08 ± 0.30 % DPE
Biodistribution, Left Ventricle ([2]; 30 minutes post-injection): 3.81 ± 0.37 % DPE
Biodistribution, Right Ventricle ([2]; 30 minutes post-injection): 2.82 ± 0.46 % DPE
Heart-to-blood ([2]; 30 minutes post-injection): 14.66
Left ventricle-to-blood ([2]; 30 minutes post-injection): 18.14
Right ventricle-to-blood ([2]; 30 minutes post-injection): 18.88

Structure (SMILES): CC(C)(CCCCCCCCCCCCc1ccc(I)cc1)CC(=O)O [DMIPP]
Myocardial clearance [1]: 6 to 7 h

Structure (SMILES): O=C(O)CCCCCCCCCCCCCCc1ccc(I)cc1 [IPPA, 15-(p-iodophenyl)pentadecanoic acid]
Blood clearance t½ (elimination) ([3]; in vivo): 5 min
Myocardial clearance, fast component t½ (flow) [3, 8]: 3.5 min
Myocardial clearance, slow component t½ (metabolism) [3, 8]: 130 min

Now from value to compound, other results behind:

Biodistribution, Blood ([2]; 5 minutes post-injection): 0.30 ± 0.04 % DPE
Biodistribution, Heart ([2]; 5 minutes post-injection): 1.40 ± 0.23 % DPE
Biodistribution, Left Ventricle ([2]; 5 minutes post-injection): 1.50 ± 0.50 % DPE
Biodistribution, Right Ventricle ([2]; 5 minutes post-injection): 0.94 ± 0.46 % DPE
Heart-to-blood ([2]; 5 minutes post-injection): 4.66
Left ventricle-to-blood ([2]; 5 minutes post-injection): 5.00
Right ventricle-to-blood ([2]; 5 minutes post-injection): 3.13
Biodistribution, Blood ([2]; 30 minutes post-injection): 0.23 ± 0.03 % DPE
Biodistribution, Heart ([2]; 30 minutes post-injection): 1.07 ± 0.16 % DPE
Biodistribution, Left Ventricle ([2]; 30 minutes post-injection): 1.33 ± 0.25 % DPE
Biodistribution, Right Ventricle ([2]; 30 minutes post-injection): 0.93 ± 0.35 % DPE
Heart-to-blood ([2]; 30 minutes post-injection): 5.95
Left ventricle-to-blood ([2]; 30 minutes post-injection): 5.78
Right ventricle-to-blood ([2]; 30 minutes post-injection): 4.00
Structure (SMILES): CCCCCCCCCCCCCC[C@@H](C)C[11C](=O)O (single isomer, unassigned; isomer i) [R-isomer]

Subcellular distribution in the rat heart [4]: found in the mitochondria
Myocardial activity retention in late images ([5]; late images at 60 minutes): high myocardial activity retention
Blood activity clearance ([5]; pig): fast clearance
Blood activity clearance ([6]; monkey): fast clearance
Accumulation in Adrenal ([7]; 5 min post-injection): 0.22 ± 0.061 % DPG
Accumulation in Blood ([7]; 5 min post-injection): 0.064 ± 0.008 % DPG
Accumulation in Bone ([7]; 5 min post-injection): 0.16 ± 0.03 % DPG
Accumulation in Brain ([7]; 5 min post-injection): 0.06 ± 0.01 % DPG
Accumulation in Gastrointestinal Tract ([7]; 5 min post-injection): 0.19 ± 0.040 % DPG
Accumulation in Kidney ([7]; 5 min post-injection): 0.41 ± 0.097 % DPG
Accumulation in Liver ([7]; 5 min post-injection): 1.34 ± 0.26 % DPG
Accumulation in Lung ([7]; 5 min post-injection): 0.47 ± 0.12 % DPG
Accumulation in Muscle ([7]; 5 min post-injection): 0.25 ± 0.009 % DPG
Accumulation in Spleen ([7]; 5 min post-injection): 0.55 ± 0.30 % DPG
Accumulation in Stomach ([7]; 5 min post-injection): 0.12 ± 0.067 % DPG
Accumulation in Testes ([7]; 5 min post-injection): 0.020 ± 0.003 % DPG
Accumulation in Heart ([7]; 5 min post-injection, tail vein): 1.55 ± 0.66 % DPG
Accumulation in Adrenal ([7]; 60 min post-injection): 0.30 ± 0.16 5 DPG
Accumulation in Blood ([7]; 60 min post-injection): 0.080 ± 0.019 5 DPG
Accumulation in Bone ([7]; 60 min post-injection): 0.70 ± 0.39 5 DPG
Accumulation in Brain ([7]; 60 min post-injection): 0.05 ± 0.02 5 DPG
Accumulation in Gastrointestinal Tract ([7]; 60 min post-injection): 0.24 ± 0.039 5 DPG
Accumulation in Heart ([7]; 60 min post-injection): 1.43 ± 0.14 5 DPG
Accumulation in Kidney ([7]; 60 min post-injection): 0.34 ± 0.08 5 DPG
Accumulation in Liver ([7]; 60 min post-injection): 0.87 ± 0.15 5 DPG
Accumulation in Lung ([7]; 60 min post-injection): 0.33 ± 0.16 5 DPG
Accumulation in Muscle ([7]; 60 min post-injection): 0.097 ± 0.075 5 DPG
Accumulation in Spleen ([7]; 60 min post-injection): 0.34 ± 0.085 5 DPG
Accumulation in Stomach ([7]; 60 min post-injection): 0.15 ± 0.038 5 DPG
Accumulation in Testes ([7]; 60 min post-injection): 0.011 ± 0.004 5 DPG
Heart-to-blood ratio ([7]; at 5 minutes post-injection): 25.8
Heart-to-lung ratio ([7]; at 5 minutes post-injection): 3.3
Heart-to-blood ratio ([7]; at 60 minutes post-injection): 20.4
Heart-to-lung ratio ([7]; at 60 minutes post-injection): 4.6
Structure (SMILES): CCCCCCCCC([18F])CCCCC1CC1CC(=O)O (stereo not drawn) [[^18F]-FCPHA, [^18F]-9-fluoro-3,4-cyclopropyl-heptadecanoic acid]
Heart activity as a function of time ([5]; pig heart, after injection): initial spike of activity corresponding to blood flow followed by a plateau after 10 minutes
Heart activity as a function of time ([6]; monkey heart, after injection (FIG. 3)): initial spike of activity corresponding to blood flow followed by a plateau after 10 minutes
Myocardial trapping visualized by PET ([6]; monkey, sixty minutes after intravenous injection of 5 mCi): myocardial trapping in both left and right ventricles
